Laboratory results from patent US9085559B2, “Triazine-aryl-bis-indoles and process for preparation thereof” (COUNCIL OF SCIENTIFIC & INDUSTRIAL RESEARCH, priority 2010, dated 2015).
Values after ≈ are worked out from the molar mass of the structure shown.

Experiments:
[1] = test system: airway hyperresponsiveness (AHR) in mouse model of asthma; test: Airway hyperresponsiveness to methacholine in OVA sensitized and challenged mouse model of asthma; format: in vivo, BALB/c mice
Description: The above protocols described in the present invention can be utilized similarly for the synthesis of numerous analogues of ‘triazine-aryl-bis-indole’ class of novel compounds represented by Formula I. • Scheme V • With reference to FIG. 9, mice were sensitized with ovalbumin (OVA) intraperitonially (i.p.) on days 0, 7 and 14 as shown in scheme V. Sham group mice were sensitized with only alum dissolved in PBS. From day 21 to 30, mice were exposed to aerosol of OVA (3%) inhalation 25 minutes daily in a Plexiglas chamber (20×20×10 cm^3). […]
Airway responsiveness was measured by barometric plethysmography using whole-body plethysmography (WBP; Buxco, Troy, N.Y.) 12 hours after last saline or ovalbumin challenge. […] Enhanced pause (Penh) to methacholine as measured using barometric plethysmography is a valid indicator of bronchoconstriction in mice and can be used to measure AHR.
FIG. 3. […] AHR was measured after allergen challenge with increasing concentrations of methacholine and MChPC200 was calculated. […]
Airway responsiveness was measured by barometric plethysmography using whole-body plethysmography (WBP; Buxco, Troy, N.Y.) 12 hours after last saline or ovalbumin challenge. […]

[2] = test system: adhesion of human neutrophils to the endothelial monolayer; test: Neutrophil adhesion assay on TNF-alpha induced HUVECs; format: cell-based; settings: HUVEC, HUVECs pretreated 2 h, TNF-α 6 h, adhesion 1 h at 37° C.
Description: FIG. 5. IICT-TA67 inhibits the adhesion of Neutrophils on TNF-alpha induced HUVECs. To study whether the inhibition of Intercellular Adhesion Molecule type 1 (ICAM-1) and Vascular Cell Adhesion Molecule type 1(VCAM-1) functionally correlates with the inhibition of adhesion of neutrophils to the endothelial monolayer, neutrophil adhesion assay was performed. For this, HUVECs were pretreated with various concentrations of IICT-TA67 for 2 hours followed by induction with TNF-α for 6 hours. Human blood neutrophils were added onto the endothelial cells monolayer and allowed to adhere for one hour at 37° C. The number of cells that remained adhered to the monolayer was estimated by measuring the peroxidase activity.
Neutrophils were isolated from peripheral blood of healthy individuals. Blood was collected in heparin solution (20 U/ml) and erythrocytes were removed by sedimentation against 6% dextran solution. […] The number of cells were recorded to make a final concentration of 6×10^5 cells/ml.
The endothelial cells plated in 96-well culture plates were incubated with or without compound IICT-TA67 at desired concentrations for 2 h, followed by induction with TNF-α (10 ng/ml) for 6 h. […] The absorbance was read at 490 nm using an automated microplate reader (Model 680, Bio-Rad, USA).

Structure (SMILES): COc1ccc(C(c2[nH]c3ccccc3c2CC(=O)O)c2[nH]c3ccccc3c2CC(=O)O)cc1Oc1nc(NC2CC2)nc(NC2CC2)n1 [Compound 7, 2,2′-[2,2′-3-(4,6-bis-cyclopropylamino)-1,3,5-triazin-2-yl-oxy-4-methoxy-phenyl]-methylene-bis-(1H-indole-3,3-diyl)-diacetic acid]
- MChPC200 ([1]; OVA/OVA mice, 0.1, 1 and 10 mg/kg orally twice per day, versus OVA/OVA/VEH): significantly attenuated the decrease in MChPC200
- dose of maximum effect on MChPC200 ([1]; OVA/OVA mice, orally twice per day): 0.1 mg/kg
- IC50 [2]: 12 µg/mL (≈ 17.8 µM)
